# Source: the supplement of paper PMC5579334
# ± gives the standard deviation of the averaged measurements.
# What was measured:
# HS-PSS [1] = assay: drug sensitivity score (DSS, CellTiter-Glo viability, 72 h) (DSS (dimensionless)); higher = more sensitive; extreme values may be limits of the assay
# Method in brief: (§1)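 Viability of MPNST cell lines and primary human Schwann cells was read as CellTiter-Glo ATP luminescence after 72 h at 37 °C, 5% CO2, in 384-well plates seeded with 750–1000 cells per well. Each compound had been preprinted at five concentrations in 10-fold steps. Signals were scaled between vehicle and positive-control wells, duplicates averaged where present, and fitted with four-parameter logistic curves. Drug sensitivity score and relative IC50 (censored at the top concentration) come from those fits, and percent inhibition is taken at the top concentration.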
# HS-Sch-2 [2] = assay: as above
# Method in brief: as §1
# [3] = tested on: HSC1 (primary human Schwann cells); assay: as above
# Method in brief: as §1
# [4] = tested on: HSC2 (primary human Schwann cells); assay: as above
# Method in brief: as §1
# S1507-2 [5] = assay: as above
# Method in brief: as §1
# S462 [6] = assay: as above
# Method in brief: as §1
# ST8814 [7] = assay: as above
# Method in brief: as §1
# STS26T [8] = assay: as above
# Method in brief: as §1
# YST-1 [9] = assay: as above
# Method in brief: as §1
# HS-PSS [10] = assay: drug sensitivity score (DSS, CellTox-Green cytotoxicity, 72 h) (DSS (dimensionless)); higher = more cytotoxic; extreme values may be limits of the assay
# Method in brief: (§2)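 MPNST cell lines and primary human Schwann cells were grown for 72 h at 37 °C in 384-well plates containing five 10-fold compound dilutions. CellTox-Green, added before seeding at a final 1:1000 dilution, gave fluorescence from DNA released by disrupted cells, and signals were scaled to vehicle and positive-control wells. Curves were fitted with a four-parameter logistic model. Drug sensitivity score and relative IC50 come from these fits, with IC50 censored at the top concentration.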
# [11] = tested on: HSC1 (primary human Schwann cells); assay: as above
# Method in brief: as §2
# [12] = tested on: HSC2 (primary human Schwann cells); assay: as above
# Method in brief: as §2
# S1507-2 [13] = assay: as above
# Method in brief: as §2
# ST8814 [14] = assay: as above
# Method in brief: as §2
# STS26T [15] = assay: as above
# Method in brief: as §2
# HS-PSS [16] = assay: % inhibition of CellTiter-Glo viability at highest tested concentration (72 h), relative to DMSO and benzethonium chloride controls; higher = more inhibition
# Method in brief: as §1
# HS-Sch-2 [17] = assay: as above
# Method in brief: as §1
# [18] = tested on: HSC1 (primary human Schwann cells); assay: as above
# Method in brief: as §1
# [19] = tested on: HSC2 (primary human Schwann cells); assay: as above
# Method in brief: as §1
# S1507-2 [20] = assay: as above
# Method in brief: as §1
# S462 [21] = assay: as above
# Method in brief: as §1
# ST8814 [22] = assay: as above
# Method in brief: as §1
# STS26T [23] = assay: as above
# Method in brief: as §1
# YST-1 [24] = assay: as above
# Method in brief: as §1
Structure (SMILES),drug sensitivity score (HS-PSS [1]),drug sensitivity score (HS-Sch-2 [2]),drug sensitivity score [3],drug sensitivity score [4],drug sensitivity score (S1507-2 [5]),drug sensitivity score (S462 [6]),drug sensitivity score (ST8814 [7]),drug sensitivity score (STS26T [8]),drug sensitivity score (YST-1 [9]),drug sensitivity score (HS-PSS [10]),drug sensitivity score [11],drug sensitivity score [12],drug sensitivity score (S1507-2 [13]),drug sensitivity score (ST8814 [14]),drug sensitivity score (STS26T [15]),% inhibition (HS-PSS [16]),% inhibition (HS-Sch-2 [17]),% inhibition [18],% inhibition [19],% inhibition (S1507-2 [20]),% inhibition (S462 [21]),% inhibition (ST8814 [22]),% inhibition (STS26T [23]),% inhibition (YST-1 [24])
CCc1cncnc1N1CCN(Cc2nc3ccc(C(F)(F)F)cc3[nH]2)CC1 (max concentration tested 10000 nM),4.22,2.07,0.31,0.531,0.267 ± 0.38,0.305 ± 0.43,0.171,1.12,0.69,0,0,0,0,0,0,64%,47.6%,13.9%,21.4%,9.77 ± 2.6%,13.2 ± 8.4%,13.6%,19.7%,22.3%
CNCc1ccc(-c2[nH]c3cc(F)cc4c3c2CCNC4=O)cc1 [Rucaparib] (max concentration tested 10000 nM),2.72,1.1,0,0,0,2.11 ± 0.82,0,0,8.59,0,0,0,3.1 ± 4.4,0,0,30.1%,22.2%,4.91%,8.78%,-0.362 ± 7.1%,27.7 ± 9%,4.21%,4.71%,60.9%
CO[C@H]1C[C@@H]2CC[C@@H](C)[C@@](O)(O2)C(=O)C(=O)N2CCCC[C@H]2C(=O)O[C@H]([C@H](C)C[C@@H]2CC[C@@H](OP(C)(C)=O)[C@H](OC)C2)CC(=O)[C@H](C)/C=C(\C)[C@@H](O)[C@@H](OC)C(=O)[C@H](C)C[C@H](C)/C=C/C=C/C=C/1C [Ridaforolimus] (max concentration tested 100 nM),5.02,4.49,16.8,15.8,7.07 ± 0.28,8.13 ± 1.3,8.41,13.1,9.63,0,0,0,0,0,0,28.6%,31%,51.5%,52.6%,35.9 ± 0.46%,40.4 ± 5.1%,32.1%,48.8%,43.6%
CCc1c(C(=O)C(N)=O)c2c(OCC(=O)O)cccc2n1Cc1ccccc1 [Varespladib] (max concentration tested 10000 nM),0,0,0.748,0,0.0077 ± 0.011,0.641 ± 0.91,0,0,0,0,0,0,0.519 ± 0.73,0,0,4.52%,0.4%,13.8%,9.85%,6.19 ± 5.8%,7.05 ± 10%,5.74%,7.98%,3.3%
Nc1ccn([C@@H]2O[C@H](CO)[C@@H](O)[C@@H]2O)c(=O)n1 [Cytarabine] (max concentration tested 10000 nM),10.2,9.14,10.8,14,6.29 ± 0.62,20 ± 0.39,12.1,13.8,13.2,5.69,5.58,4.6,0.68 ± 0.19,7.9,5.45,65.1%,69.3%,65.1%,80.3%,66.4 ± 5.8%,96.4 ± 1.9%,90.2%,74.7%,69.2%
C=C1C[C@@H]2[C@H](CC[C@]3(C)C(=O)CC[C@@H]23)[C@@]2(C)C=CC(=O)C=C12 [Exemestane] (max concentration tested 10000 nM),1.87,0.78,0,0,0.225 ± 0.26,0.804 ± 0.28,0,0,0,0,0,0,0,0,0,26.7%,22.9%,3.19%,6.18%,12 ± 1.6%,22.1 ± 2%,5.32%,9.39%,-11.7%
N#CCNC(=O)c1ccc(-c2ccnc(Nc3ccc(N4CCOCC4)cc3)n2)cc1 [Momelotinib] (max concentration tested 10000 nM),3.21,5.45,7.64,8.06,3.09 ± 0.61,4.7 ± 0.25,3.16,3.24,5.7,0,0.946,1.87,0.683 ± 0.4,0,0,49.2%,60.3%,76.8%,81.2%,67.1 ± 11%,74.7 ± 4.7%,41.6%,58.8%,55.4%
CC(C)N(CCCNC(=O)Nc1ccc(C(C)(C)C)cc1)C[C@H]1O[C@@H](n2cc(Br)c3c(N)ncnc32)[C@H](O)[C@@H]1O [SGC0946] (max concentration tested 10000 nM),6.51,3.88,0.65,0.163,3.16 ± 1.4,0.582 ± 0.82,2.58,0,1.03,2.32,0,0,0.24 ± 0.046,3.21,0,79.5%,67.2%,23.1%,16.3%,42.7 ± 1.2%,19.2 ± 8.9%,52.9%,4.04%,29%
